{
  "source": "patent US20230167073A1",
  "about": "(Teijin Pharma Limited, priority 2020, published 2023)",
  "data": [
    {"biological_target": "T1, Human TRPC6 (Homo sapiens, UniProt Q9Y210)", "T1 construct": "expressed in transfected cells", "T1 sequence (Q9Y210 1-931)": "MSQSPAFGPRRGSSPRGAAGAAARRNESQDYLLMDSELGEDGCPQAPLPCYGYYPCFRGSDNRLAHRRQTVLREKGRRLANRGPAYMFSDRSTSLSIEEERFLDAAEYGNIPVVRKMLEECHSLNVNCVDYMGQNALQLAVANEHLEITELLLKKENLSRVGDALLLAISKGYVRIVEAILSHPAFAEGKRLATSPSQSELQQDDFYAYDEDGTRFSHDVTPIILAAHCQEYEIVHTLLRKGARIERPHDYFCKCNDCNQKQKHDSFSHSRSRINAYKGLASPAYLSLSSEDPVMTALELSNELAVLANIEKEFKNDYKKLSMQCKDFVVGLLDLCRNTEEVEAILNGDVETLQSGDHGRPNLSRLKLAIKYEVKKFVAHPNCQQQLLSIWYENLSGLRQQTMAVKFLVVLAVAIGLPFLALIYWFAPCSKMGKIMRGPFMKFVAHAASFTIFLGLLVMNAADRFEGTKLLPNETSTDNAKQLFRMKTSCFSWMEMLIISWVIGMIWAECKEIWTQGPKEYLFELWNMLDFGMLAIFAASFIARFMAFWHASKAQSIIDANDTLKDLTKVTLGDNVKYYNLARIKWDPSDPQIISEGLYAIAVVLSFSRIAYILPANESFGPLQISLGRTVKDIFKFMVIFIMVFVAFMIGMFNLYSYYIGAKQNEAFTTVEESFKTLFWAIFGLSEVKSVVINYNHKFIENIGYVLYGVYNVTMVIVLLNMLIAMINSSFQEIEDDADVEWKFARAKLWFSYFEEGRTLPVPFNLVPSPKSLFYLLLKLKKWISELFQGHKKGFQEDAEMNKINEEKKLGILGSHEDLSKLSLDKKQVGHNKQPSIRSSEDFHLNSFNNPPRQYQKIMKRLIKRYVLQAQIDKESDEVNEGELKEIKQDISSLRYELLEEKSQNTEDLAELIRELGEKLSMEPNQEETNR", "test": "Evaluation of TRPC6 channel inhibitory activity (1), FLIPR Calcium 5 Assay Kit, OAG stimulation (Compound Nos. 1-1293)", "format": "cell-based", "details": "Human TRPC6 stably-expressing cells, OAG 30 μM, FLIPR Calcium 5 Assay Kit; read-out: Inhibitory activity (pIC50 class) (converted)", "in_short": "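Calcium influx read by FLIPR fluorescence in cells stably expressing human TRPC6, dye-loaded 30 min. Compounds preincubated 20 min, then OAG stimulation at 30 μM final. Inhibition fitted by four-parameter logistic regression to give pIC50, reported as +/++/+++ categories.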", "units": {"IC50": "nM"}, "values": [
      {"smiles": "Cn1nc(-c2ccccc2)cc1Oc1cc(C#N)ccc1-c1ncc(C(O)CN)s1", "note": "(stereo not drawn) [Compound 225, 4-[5-(2-amino-1-hydroxyethyl)-1,3-thiazol-2-yl]-3-(2-methyl-5-phenylpyrazol-3-yl)oxybenzonitrile]", "IC50": "< 10"},
      {"smiles": "Cc1cc(Oc2cc(C#N)ccc2-n2cc(C(O)CN)cn2)cc(-c2ccccc2)n1", "note": "(stereo not drawn) [Compound 226, 4-[4-(2-amino-1-hydroxyethyl)pyrazol-1-yl]-3-(2-methyl-6-phenylpyridin-4-yl)oxybenzonitrile]", "IC50": "< 10"},
      {"smiles": "Cn1nc(C2CCOCC2)cc1Oc1cc(C#N)ccc1-c1ccc(CCN)cn1", "note": "[Compound 227, 4-[5-(2-aminoethyl)pyridin-2-yl]-3-[2-methyl-5-(oxan-4-yl)pyrazol-3-yl]oxybenzonitrile]", "IC50": "< 10"},
      {"smiles": "CC(C)Cc1cc(Oc2cc(C#N)ccc2-c2ccc(CCN)cn2)n(C)n1", "note": "[Compound 228, 4-[5-(2-aminoethyl)pyridin-2-yl]-3-[2-methyl-5-(2-methylpropyl)pyrazol-3-yl]oxybenzonitrile]", "IC50": "< 10"},
      {"smiles": "CC(C)c1cc(Oc2cc(C#N)ccc2-c2ccc(CCN)cn2)n(C)n1", "note": "[Compound 229, 4-[5-(2-aminoethyl)pyridin-2-yl]-3-(2-methyl-5-propan-2-ylpyrazol-3-yl)oxybenzonitrile]", "IC50": "< 10"},
      {"smiles": "CCCc1cc(Oc2cc(C#N)ccc2-c2ccc(CCN)cn2)n(C)n1", "note": "[Compound 230, 4-[5-(2-aminoethyl)pyridin-2-yl]-3-(2-methyl-5-propylpyrazol-3-yl)oxybenzonitrile]", "IC50": "< 10"},
      {"smiles": "CNC[C@H](O)c1cnn(-c2ccc(C#N)cc2Oc2cc(-c3ccccc3)nc(C)n2)c1", "note": "[Compound 231, 4-[4-[(1R)-1-hydroxy-2-(methylamino)ethyl]pyrazol-1-yl]-3-(2-methyl-6-phenylpyrimidin-4-yl)oxybenzonitrile]", "IC50": "< 10"},
      {"smiles": "Cc1nc(Oc2cc(C#N)ccc2-n2cc([C@@H](O)CN)cn2)cc(N2CCCC2)n1", "note": "[Compound 232, 4-[4-[(1R)-2-amino-1-hydroxyethyl]pyrazol-1-yl]-3-(2-methyl-6-pyrrolidin-1-ylpyrimidin-4-yl)oxybenzonitrile]", "IC50": "< 10"},
      {"smiles": "Cc1nc(Oc2cc(C#N)ccc2-n2cc([C@@H](O)CN)cn2)cc(N2CCCCC2)n1", "note": "[Compound 233, 4-[4-[(1R)-2-amino-1-hydroxyethyl]pyrazol-1-yl]-3-(2-methyl-6-piperidin-1-ylpyrimidin-4-yl)oxybenzonitrile]", "IC50": "< 10"},
      {"smiles": "Cc1nc(Oc2cc(C#N)ccc2-n2cc([C@@H](O)CN)cn2)cc(N2CCC(C(C)C)CC2)n1", "note": "[Compound 234, 4-[4-[(1R)-2-amino-1-hydroxyethyl]pyrazol-1-yl]-3-[2-methyl-6-(4-propan-2-ylpiperidin-1-yl)pyrimidin-4-yl]oxybenzonitrile]", "IC50": "> 1000"},
      {"smiles": "Cc1nc(Oc2cc(C#N)ccc2-n2cc([C@@H](O)CN)cn2)cc(N2CCCC(C)(C)C2)n1", "note": "[Compound 235, 4-[4-[(1R)-2-amino-1 hydroxyethyl]pyrazol-1-yl]-3-[6-(3,3-dimethylpiperidin-1-yl)-2-methylpyrimidin-4-yl]oxybenzonitrile]", "IC50": "10 to 1000"},
      {"smiles": "Cc1nc(Oc2cc(C#N)ccc2-n2cc([C@@H](O)CN)cn2)cc(N2CC(F)(F)C2)n1", "note": "[Compound 236, 4-[4-[(1R)-2-amino-1-hydroxyethyl]pyrazol-1-yl]-3-[6-(3,3-difluoroazetidin-1-yl)-2-methylpyrimidin-4-yl]oxybenzonitrile]", "IC50": "10 to 1000"},
      {"smiles": "Cn1nc(C2CCC2)cc1Oc1cc(C#N)ccc1-c1ccc(CCN)cn1", "note": "[Compound 237, 4-[5-(2-aminoethyl)pyridin-2-yl]-3-(5-cyclobutyl-2-methylpyrazol-3-yl)oxybenzonitrile]", "IC50": "< 10"},
      {"smiles": "Cn1nc(C2CCC2)cc1Oc1cc(C#N)ccc1-c1ncc(C(O)CN)s1", "note": "(stereo not drawn) [Compound 238, 4-[5-(2-amino-1-hydroxyethyl)-1,3-thiazol-2-yl]-3-(5-cyclobutyl-2-methylpyrazol-3-yl)oxybenzonitrile]", "IC50": "< 10"},
      {"smiles": "Cc1nc(Oc2cc(C#N)ccc2-c2cnn(C3CCNCC3)c2)cc(N2CCOCC2)n1", "note": "[Compound 239, 3-(2-methyl-6-morpholin-4-ylpyrimidin-4-yl)oxy-4-(1-piperidin-4-ylpyrazol-4-yl)benzonitrile]", "IC50": "> 1000"},
      {"smiles": "Cc1nc(Oc2cc(C#N)ccc2-c2ccc(C[C@H](N)C(N)=O)cc2)cc(-c2ccccc2)n1", "note": "[Compound 240, (2S)-2-amino-3-[4-[4-cyano-2-(2-methyl-6-phenylpyrimidin-4-yl)oxyphenyl]phenyl]propanamide]", "IC50": "10 to 1000"},
      {"smiles": "Cc1cc(Oc2cc(C#N)ccc2-n2cc(C(O)CN)cn2)cc(N2CCOCC2)n1", "note": "(stereo not drawn) [Compound 241, 4-[4-(2-amino-1-hydroxyethyl)pyrazol-1-yl]-3-(2-methyl-6-morpholin-4-ylpyridin-4-yl)oxybenzonitrile]", "IC50": "< 10"},
      {"smiles": "COCc1nn(C)c(Oc2cc(C#N)ccc2-c2ccc(CCN)cc2)c1C", "note": "[Compound 242, 4-[4-(2-aminoethyl)phenyl]-3-[5-(methoxymethyl)-2,4-dimethylpyrazol-3-yl]oxybenzonitrile]", "IC50": "> 1000"},
      {"smiles": "CC(C)Cc1nn(C)c(Oc2cc(C#N)ccc2-c2ccc(CCN)cc2)c1C(C)C", "note": "[Compound 243, 4-[4-(2-aminoethyl)phenyl]-3-[2-methyl-5-(2-methylpropyl)-4-propan-2-ylpyrazol-3-yl]oxybenzonitrile]", "IC50": "> 1000"},
      {"smiles": "Cc1nc(Oc2cc(C#N)ccc2-n2cc([C@@H](O)CNC3COC3)cn2)cc(-c2ccccc2)n1", "note": "[Compound 244, 4-[4-[(1R)-1-hydroxy-2-(oxetan-3-ylamino)ethyl]pyrazol-1-yl]-3-(2-methyl-6-phenylpyrimidin-4-yl)oxybenzonitrile]", "IC50": "10 to 1000"},
      {"smiles": "Cn1nc(COC2CCCC2)cc1Oc1cc(C#N)ccc1-c1ccc(CCN)cn1", "note": "[Compound 245, 4-[5-(2-aminoethyl)pyridin-2-yl]-3-[5-(cyclopentyloxymethyl)-2-methylpyrazol-3-yl]oxybenzonitrile]", "IC50": "10 to 1000"},
      {"smiles": "N#Cc1ccc(-c2ncc(C(O)CN)s2)c(Oc2cnnc(-c3ccccc3)c2)c1", "note": "(stereo not drawn) [Compound 246, 4-[5-(2-amino-1-hydroxyethyl)-1,3-thiazol-2-yl]-3-(6-phenylpyridazin-4-yl)oxybenzonitrile]", "IC50": "< 10"},
      {"smiles": "Cc1nc(Oc2cc(C#N)ccc2-c2ccc(CC(C)(C)N)cc2)cc(N2CCOCC2)n1", "note": "[Compound 247, 4-[4-(2-amino-2-methylpropyl)phenyl]-3-(2-methyl-6-morpholin-4-ylpyrimidin-4-yl)oxybenzonitrile]", "IC50": "< 10"},
      {"smiles": "Cn1nc(-c2ccccc2)cc1Oc1cc(C#N)ccc1-c1ncc(C(O)CN)cn1", "note": "(stereo not drawn) [Compound 248, 4-[5-(2-amino-1-hydroxyethyl)pyrimidin-2-yl]-3-(2-methyl-5-phenylpyrazol-3-yl)oxybenzonitrile]", "IC50": "< 10"},
      {"smiles": "Cn1nc(-c2ccccn2)cc1Oc1cc(C#N)ccc1-c1ccc(C(O)CN)cn1", "note": "(stereo not drawn) [Compound 249, 4-[5-(2-amino-1-hydroxyethyl)pyridin-2-yl]-3-(2-methyl-5-pyridin-2-ylpyrazol-3-yl)oxybenzonitrile]", "IC50": "< 10"},
      {"smiles": "Cc1cc(Oc2cc(C#N)ccc2-c2ncc(CCN)cn2)cc(N2CCOCC2)n1", "note": "[Compound 250, 4-[5-(2-aminoethyl)pyrimidin-2-yl]-3-(2-methyl-6-morpholin-4-ylpyridin-4-yl)oxybenzonitrile]", "IC50": "< 10"},
      {"smiles": "COC1CCN(c2cc(Oc3cc(C#N)ccc3-n3cc([C@@H](O)CN)cn3)nc(C)n2)CC1", "note": "[Compound 251, 4-[4-[(1R)-2-amino-1-hydroxyethyl]pyrazol-1-yl]-3-[6-(4-methoxypiperidin-1-yl)-2-methylpyrimidin-4-yl]oxybenzonitrile]", "IC50": "> 1000"},
      {"smiles": "Cc1nc(Oc2cc(C#N)ccc2-n2cc([C@@H](O)CN)cn2)cc(N2CCC(F)(F)C2)n1", "note": "[Compound 252, 4-[4-[(1R)-2-amino-1-hydroxyethyl]pyrazol-1-yl]-3-[6-(3,3-difluoropyrrolidin-1-yl)-2-methylpyrimidin-4-yl]oxybenzonitrile]", "IC50": "> 1000"},
      {"smiles": "Cc1nc(Oc2cc(C#N)ccc2-n2cc([C@@H](O)CN)cn2)cc(N2CCC(C(F)(F)F)CC2)n1", "note": "[Compound 253, 4-[4-[(1R)-2-amino-1-hydroxyethyl]pyrazol-1-yl]-3-[2-methyl-6-[4-(trifluoromethyl)piperidin-1-yl]pyrimidin-4-yl]oxybenzonitrile]", "IC50": "< 10"},
      {"smiles": "Cc1cc(Oc2cc(C#N)ccc2-c2ccc(CCN)cn2)cc(N2CCCC2)n1", "note": "[Compound 254, 4-[5-(2-aminoethyl)pyridin-2-yl]-3-(2-methyl-6-pyrrolidin-1-ylpyridin-4-yl)oxybenzonitrile]", "IC50": "< 10"}
    ]}
  ]
}
